# Assay results: patent US6723716B1, “7-acylamino-3-heteroarylthio-3-cephem carboxylic acid antibiotics and prodrugs thereof” (Essential Therapeutics, Inc., priority 1999, dated 2004)
# Experiments:
# S. aureus ATCC29213 = assay: Human serum binding effect: MIC with and without human serum; assay type: cell-based, Staphylococcus aureus; details: 1:1 human serum:MHB
# Description: The approximate measurement of the degree of binding of the compound to human serum proteins can be achieved by determination of the effect of the addition of human serum to the medium in which the MIC values against a selected bacterial strain is determined. The ratio of the MIC value obtained in presence of added human serum to the MIC value determined without serum addition was used as a measure of serum binding and the results of such determination are presented below in Table 2.
# In addition to the standard MIC determination described above, the staphylococcal strain ATCC29213 is also tested in a ratio 1:1, human serum:MHB to obtain a preliminary estimate of the bioactivity of test compounds in serum: The assay was performed in Human Serum and Mueller-Hinton Broth (HSMHB) with a final bacterial inoculum of 1×10^6 CFU/mL (from an early-log phase culture) and a final volume of 100 μL. Control drugs, including imipenem, vancomycin, dicloxacillin, and new compounds were prepared in double-concentrated Mueller-Hinton broth at a concentration equivalent to 4-fold the desired final concentration. Dilution of compounds were prepared directly in the plates by serial 2-fold dilution in double-concentrated Mueller-Hinton using a multichannel pipette. Positive and negative growth controls were included in each plate. […] The inoculum was prepared by diluting the early log-phase (1 h) culture 1:100 with fresh double-concentrated Mueller-Hinton broth. A volume of 25 μL of the inoculum was added to each well. […] The exact inoculum was determined by applying 10 μl of 10-fold serial dilution of the bacterial suspension on TSA. After overnight incubation at 35° C., colony forming units were manually counted.
# E. coli ATCC25992 = assay: Broth microdilution MIC (NCCLS); assay type: cell-based; details: Escherichia coli
# Description: (§1) Compounds were evaluated for antimicrobial activity against a panel of bacterial strains using a broth microdilution assay performed as recommended by the NCCLS (1). The minimum inhibitory concentration (MIC) was defined as the lowest concentration of drug which prevented the growth of the bacteria.
# (§2) For this primary panel, the assay was performed in Mueller-Hinton Broth (MHB) with a final bacterial inoculum of 5×10^5 CFU/mL (from an early-log phase culture) and a final volume of 100 μL. Control drugs, including imipenem, vancomycin, Penicillin G, dicloxacillin (vs. MSSA ATCC29213 only), and new compounds were prepared at a concentration equivalent to 2-fold the desired final concentration. Dilution of compounds were prepared directly in the plates by serial 2-fold dilution using a multichannel pipette. Positive and negative growth control were included in each plate.
# (§3) The bacterial inocula were prepared as follows. For each strain one isolated colony was used to inoculate a volume of 8 mL of Mueller-Hinton broth and these cultures were incubated overnight (20 h) at 35° C. in a shaking incubator. At the exception of Enterococcus strains, culture were then diluted 1:10 and allowed to grow for an additional one hour at 35° C. in a shaking incubator. The inocula were prepared by diluting the early log-phase (1 h) cultures 1:1000 with fresh Mueller-Hinton broth. E. faecium and E. faecalis were prepared by diluting overnight cultures 1:333 and 1:666, respectively, with fresh Mueller-Hinton broth. A volume of 50 μL of the inocula was added to each well. […] The exact inocula were determined by applying 10 μL of 10-fold serial dilution of the bacterial suspensions on TSA. After overnight incubation at 35° C., colony forming units were manually counted.
# (§4) Microtiter plates were incubated during 24 h at 35° C. and were read using a microtiterplate reader (Molecular Devices) at 650 nm as well as by visual observation using a microtiterplate reading mirror.
# [1] = system: S. aureus PC1 (Meth^S)(lac^+); assay: Broth microdilution MIC (NCCLS); assay type: cell-based; details: Staphylococcus aureus
# Description: as §1, §2, §3, §4
# E. faecium ATCC 35667 = assay: Broth microdilution MIC (NCCLS); assay type: cell-based; details: Enterococcus faecium, ATCC35667
# Description: as §1, §2, §3, §4
# E. faecium VanA (Van^R) = assay: Broth microdilution MIC (NCCLS); assay type: cell-based; details: Enterococcus faecium
# Description: as §1, §2, §3, §4
# [2] = system: S. aureus ATCC 33593 (Meth^R); assay: Broth microdilution MIC (NCCLS); assay type: cell-based; details: Staphylococcus aureus, ATCC33593
# Description: as §1, §2, §3, §4
# E. faecalis VanB (Van^R) = assay: Broth microdilution MIC (NCCLS); assay type: cell-based; details: Enterococcus faecalis
# Description: as §1, §2, §3, §4
# [3] = system: S. aureus ATCC 13709 (Meth^S); assay: Broth microdilution MIC (NCCLS); assay type: cell-based; details: Staphylococcus aureus, ATCC13709, S. aureus ATCC 13709 (Meth^S); read-out: MIC
# Description: as §1, §2, §3, §4
# [4] = system: S. haemolyticus 05 (Meth^R); assay: Broth microdilution MIC (NCCLS); assay type: cell-based; details: Staphylococcus haemolyticus
# Description: as §1, §2, §3, §4
# [5] = system: S. aureus Spain #356 (Meth^R); assay: Broth microdilution MIC (NCCLS); assay type: cell-based; details: Staphylococcus aureus, 24 h
# Description: as §1, §2, §3, §4
# P. aeruginosa ATCC 27853 = assay: Broth microdilution MIC (NCCLS); assay type: cell-based; details: Pseudomonas aeruginosa, ATCC27853
# Description: as §1, §2, §3, §4
# E. faecalis ATCC 29212 = assay: Broth microdilution MIC (NCCLS); assay type: cell-based; details: Enterococcus faecalis, ATCC29212
# Description: as §1, §2, §3, §4
# [6] = system: S. aureus 76 (Meth^R)(lac^+); assay: Broth microdilution MIC (NCCLS); assay type: cell-based; details: Staphylococcus aureus
# Description: as §1, §2, §3, §4
# S. aureus ATCC 29213 = assay: Broth microdilution MIC (NCCLS); assay type: cell-based; details: Staphylococcus aureus, ATCC29213; S. aureus ATCC 29213; Mueller-Hinton broth, 24 h at 35° C.; read-out: MIC
# Description: as §1, §2, §3, §4
# [7] = system: S. aureus Col (Meth^R)(lac^−); assay: Broth microdilution MIC (NCCLS); assay type: cell-based; details: Staphylococcus aureus
# Description: as §1, §2, §3, §4
# E. faecium A491 (Amp^R) = assay: Broth microdilution MIC (NCCLS); assay type: cell-based; details: Enterococcus faecium
# Description: as §1, §2, §3, §4
# [8] = In vitro stability of compounds in rat serum; assay type: in vitro ADME; details: Table 2 data
# Description: In general, compounds from the class of 7-acylamino-3-heteroarylthio-3-cephem carboxylic acids have higher chemical reactivity and lower stability towards chemical or enzymatic decomposition than most typical cephalosporins. […] Results shown in Table 2 represent percentage loss of the initial amount of cephalosporin compound upon 60 min incubation in rat serum.
# Procedure for measuring degree of degradation of cephalosporin compounds in rat serum was as follows:
# Fresh control rat serum (heparinized and stored frozen) is preincubated at 37° C. for 15 min in a shaking water bath. pH is measured using test strips. 25 μL of a 2 mg/mL solution cephalosporin compound (in water) of is then added to each matrix to make 1000 μL. Solutions were incubated at 37° C. 100 ul of solution was taken out at time=0, 15, 30, and 60 min post dose and added 200 μL 4% trichloroacetic acid, vortexed, and centrifuged for 10 min at 14,000 rpm in an Eppendorf microcentrifuge. 25 μL of each supernatant was injected onto HPLC. Experiment was repeated using 25 μL of a 0.2 mg/mL cephalosporin compound. Degradation is measured as the percentage of HPLC peak area at time t relative to peak area at time 0.
# HPLC conditions: Beckman Ultrasphere C18 column. 5 u. 4.6 mm×25 cm. 1 mL/min of 95% 0.1 M ammonium acetate, pH 6, 5% ACN going to 75% buffer/organic over 20 min. UV monitored at 254 and 280 nm.
# [9] = system: S. aureus ATCC 13709 (Smith diffuse); assay: Murine lethal bacteremic peritonitis (septicemia) efficacy; assay type: in vivo, mice; details: Staphylococcus aureus, ATCC13709, sc, read-out: Efficacy in murine septicemia % survival
# Description: 10 mice/group were injected intraperitoneally with 2.98×10^7 cfu S. aureus ATCC 13709 (Smith diffuse) and treated at 0 and 2 hrs post-challenge with serial two-fold doses of new cephalosporin antibiotic, imipenem and vancomycin subcutaneously in order to determine the ED50. Male Swiss-Webster mice weighing originally 24.2-26.1 g were obtained from Charles Rivers Labs, Hollister, Calif. Mice were housed 10 per cage and given free access to water and mouse chow.
# Staphylococcus aureus ATCC 13709 (Smith diffuse) was grown overnight at 37° C. in Brain-heart Infusion broth (BHIB). The following morning, it was subcultured to fresh BHIB and incubated for 4-5 h at 37° C. The log-phase growth cells were washed once with physiological saline and adjusted to the desired concentration by correlation of absorbency at OD 600 nm with predetermined plate counts (NCCLS, 1994). The cell suspension was mixed with an equal volume of sterile 14% hog-gastric mucin (2). Inoculum was kept in an ice bath until used (<1 h).
# Mice were challenged via an injection of 0.5 mL bacterial suspension intraperitoneally. The bacterial challenge was 2.98×10^7 cfu/mouse.
# Imipenem (Primaxin IV; Lot 7294A), vancomycin (Vancocin; Lot 8MU60W), and new cephalosporin antibiotic were prepared by serial two-fold dilutions to concentrations of 0.078-0.005 mg/mL, 1.2-0.075 mg/mL, 0.3-0.02 mg/mL, 0.3-0.02 mg/mL and 0.3-0.02 mg/mL respectively in sterile water (1). All antibiotics were administered subcutaneously in 0.1 mL volumes at 0 and 2 hours post-challenge. Concentrations of all compounds are based on the weight of the bioactive ingredients.
# The 50% effective dose (ED50) was calculated by the probit method (3) utilizing a program entitled Probit (Nycomed-Salutar).
Compound,Human serum binding effect (ratio of MIC value determined with and without human serum added) (S. aureus ATCC29213),MIC (E. coli ATCC25992) [µg/mL],MIC [1] [µg/mL],MIC (E. faecium ATCC 35667) [µg/mL],MIC (E. faecium VanA (Van^R)) [µg/mL],MIC [2] [µg/mL],MIC (E. faecalis VanB (Van^R)) [µg/mL],MIC [3] [µg/mL],MIC [4] [µg/mL],MIC [5] [µg/mL],MIC (P. aeruginosa ATCC 27853) [µg/mL],MIC (E. faecalis ATCC 29212) [µg/mL],MIC [6] [µg/mL],MIC (S. aureus ATCC 29213) [µg/mL],other results
"NCCSc1nnc(SC2=C(C(=O)O)N3C(=O)[C@@H](NC(=O)/C(=N\O)c4nc(N)sc4Cl)[C@H]3SC2)s1 [Cmpd 1, (7R)-7-[(Z)-2-(2-amino-5-chlorothiazol-4-yl)-2-(hydroxyimino)acetamido]-3-(2-aminoethylthio-1,3,4-thiadiazol-5-ylthio)-3-cephem-4-carboxylic acid]",64,0.5,0.25,0.5,2,1,0.25,0.13,1,1,,,,,
"Cc1nc(CSCCN)c(SC2=C(C(=O)O)N3C(=O)[C@@H](NC(=O)/C(=N\O)c4cccc(N)n4)[C@H]3SC2)s1 [Cmpd 2, (7R)-7-[(Z)-2-(2-aminopyrid-6-yl)-2-(hydroxyimino)acetamido]-3-[4-(2-aminoethylthiomethyl)-2-methyl-1,3-thiazol-5-ylthio]-3-cephem-4-carboxylic acid]",4,32,0.25,4,4,,1,0.13,4,2,> 32,0.25,4,0.25,
"NCCSCc1csc(SC2=C(C(=O)O)N3C(=O)[C@@H](NC(=O)/C(=N\O)c4cccc(N)n4)[C@H]3SC2)n1 [Cmpd 4, (7R)-7-[(Z)-2-(2-aminopyrid-6-yl)-2-(hydroxyimino)acetamido]-3-[4-(2-aminoethylthiomethyl)-1,3-thiazol-2-ylthio]-3-cephem-4-carboxylic acid]",3,4,0.13,0.25,,1,0.5,0.13,,2,,0.25,2,0.13,
NCCSc1nccnc1SC1=C(C(=O)O)N2C(=O)C(NC(=O)/C(=N\O)c3cccc(N)n3)C2SC1 (centres unmarked) [Cmpd 7],,4,0.25,8,8,2,4,0.25,2,2,> 32,2,2,0.25,MIC [7]: 2 µg/mL; MIC (E. faecium A491 (Amp^R)): > 32 µg/mL
"NCCSCc1ccncc1SC1=C(C(=O)O)N2C(=O)[C@@H](NC(=O)/C(=N\O)c3nsc(N)n3)[C@H]2SC1 [Cmpd 27, (7R)-7-[(Z)-2-(5-amino-1,2,4-thiadiazol-3-yl)-2-(hydroxyimino)acetamido]-3-[4-(2-aminoethylthiomethyl)pyrid-3-ylthio]-3-cephem-4-carboxylic acid]",4,,,,,,,0.25,,,,,,,stability of compounds in rat serum [8]: improved stability
"C[C@@H](O)[C@H]1C(=O)N2C(C(=O)O)=C(SCCN=CN)C[C@H]12 [Imipenem, reference compound]",2,,,,,,,0.008,,,,,,,responders at 0.039 mg/kg ([9]; dose 0.039 mg/kg s.c. at 0 and 2 h post-challenge): 20%; responders at 0.078 mg/kg ([9]; dose 0.078 mg/kg s.c. at 0 and 2 h post-challenge): 40%; responders at 0.156 mg/kg ([9]; dose 0.156 mg/kg s.c. at 0 and 2 h post-challenge): 100%; responders at 0.312 mg/kg ([9]; dose 0.312 mg/kg s.c. at 0 and 2 h post-challenge): 100%; responders at 0.625 mg/kg ([9]; dose 0.625 mg/kg s.c. at 0 and 2 h post-challenge): 100%
